The text below walks through data of patent US12421211B2, “Heterocyclic compounds” (Hoffmann-La Roche Inc., priority 2021, dated 2025).

Where a name gives a salt, the structure may show the parent alone. Read-outs that look alike come from different tables or passages of the source.

The assay concerns Acinetobacter baumannii ATCC17961. As to the kind of experiment: Antimicrobial susceptibility testing: 90% growth inhibitory concentration (IC90) determination. The assay is classed as cell-based. Conditions: Acinetobacter baumannii, ATCC17961, 16 h, read-out: ATCC 17961 IC90. A digest of the protocol:
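A. baumannii ATCC17961 at ~5×10^5 CFU/ml in Iso-Sensitest broth exposed to 10-point twofold dilutions (e.g. 50–0.097 μM final), 35±2° C. OD600 read every 20 minutes over 16h; IC50 and IC90 derived from inhibition during logarithmic growth.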

The mark [1] stands for this setting: 90% growth inhibitory concentration, Acinetobacter baumannii ATCC17961, Iso-Sensitest broth, OD 600 nm over 16 h.

`Cn1c(-c2ccc(-c3c[nH]nc3-c3cn[nH]c3)c(F)c2F)cnc1C(=O)Nc1ccc(C(=O)N2CCN(C(=O)C3CC[N+](C)(C)CC3)CC2)c(Cl)c1` [Example F48, N-[3-chloro-4-[4-(1,1-dimethylpiperidin-1-ium-4-carbonyl)piperazine-1-carbonyl]phenyl]-5-[2,3-difluoro-4-[3-(1H-pyrazol-4-yl)-1H-pyrazol-4-yl]phenyl]-1-methyl-imidazole-2-carboxamide; formate]: the IC90 (commonly the point of the concentration-response curve where the effect stands at 90%) under setting [1] was found to be 470 nM. Still for that read-out and setting: with `Cc1nn(-c2ccccn2)cc1-c1ccc(-c2cnc(C(=O)Nc3ccc(C(=O)N4CCN(C(=O)C5CC[N+](C)(C)CC5)CC4)c(Cl)c3)n2C)c(F)c1F` [Example F50, N-[3-chloro-4-[4-(1,1-dimethylpiperidin-1-ium-4-carbonyl)piperazine-1-carbonyl]phenyl]-5-[2,3-difluoro-4-[3-methyl-1-(2-pyridyl)pyrazol-4-yl]phenyl]-1-methyl-imidazole-2-carboxamide; formate] the figure was 1100 nM; with `Cc1n[nH]cc1-c1ccc(-c2cnc(C(=O)Nc3ccc(C(=O)N4CCN(C(=O)C[N+](C)(C)C)CC4)c(Cl)c3)n2C)cc1` [Example F51, [2-[4-[2-chloro-4-[[1-methyl-5-[4-(3-methyl-1H-pyrazol-4-yl)phenyl]imidazole-2-carbonyl]amino]benzoyl]piperazin-1-yl]-2-oxo-ethyl]-trimethyl-ammonium; formate], 210 nM. The same measure, in the same setting: for `Cc1n[nH]c(C)c1-c1ccc(-c2cnc(C(=O)Nc3ccc(C(=O)N4CCN(C(=O)C[N+](C)(C)C)CC4)c(Cl)c3)n2C)cc1` [Example F52, [2-[4-[2-chloro-4-[[5-[4-(3,5-dimethyl-1H-pyrazol-4-yl)phenyl]-1-methyl-imidazole-2-carbonyl]amino]benzoyl]piperazin-1-yl]-2-oxo-ethyl]-trimethyl-ammonium; 2,2,2-trifluoroacetate] the value was 270 nM; for `COc1cccc(CCn2cc(-c3ccc(-c4cnc(C(=O)Nc5ccc(C(=O)N6CCN(C(=O)C7CC[N+](C)(C)CC7)CC6)c(Cl)c5)n4C)c(F)c3F)c(C)n2)n1` [Example F54, N-[3-chloro-4-[4-(1,1-dimethylpiperidin-1-ium-4-carbonyl)piperazine-1-carbonyl]phenyl]-5-[2,3-difluoro-4-[1-[2-(6-methoxy-2-pyridyl)ethyl]-3-methyl-pyrazol-4-yl]phenyl]-1-methyl-imidazole-2-carboxamide; formate], 590 nM; for `COc1cccc(Cn2cc(-c3ccc(-c4cnc(C(=O)Nc5ccc(C(=O)N6CCN(C(=O)C7CC[N+](C)(C)CC7)CC6)c(Cl)c5)n4C)c(F)c3F)c(C)n2)n1` [Example F55, N-[3-chloro-4-[4-(1,1-dimethylpiperidin-1-ium-4-carbonyl)piperazine-1-carbonyl]phenyl]-5-[2,3-difluoro-4-[1-[(6-methoxy-2-pyridyl)methyl]-3-methyl-pyrazol-4-yl]phenyl]-1-methyl-imidazole-2-carboxamide; formate], 270 nM.

With `Cc1nn(Cc2c[nH]nn2)cc1-c1ccc(-c2cnc(C(=O)Nc3ccc(C(=O)N4CCN(C(=O)C5CC[N+](C)(C)CC5)CC4)c(Cl)c3)n2C)c(F)c1F` [Example F56, N-[3-chloro-4-[4-(1,1-dimethylpiperidin-1-ium-4-carbonyl)piperazine-1-carbonyl]phenyl]-5-[2,3-difluoro-4-[3-methyl-1-(1H-triazol-4-ylmethyl)pyrazol-4-yl]phenyl]-1-methyl-imidazole-2-carboxamide; formate], under setting [1], the IC90 amounted to 330 nM.

Turning to `COCCn1ncc(-c2ccc(-c3cnc(C(=O)Nc4ccc(C(=O)N5CCN(C(=O)C6CC[N+](C)(C)CC6)CC5)c(Cl)c4)n3C)c(F)n2)c1C` [Example F57, N-[3-chloro-4-[4-(1,1-dimethylpiperidin-1-ium-4-carbonyl)piperazine-1-carbonyl]phenyl]-5-[2-fluoro-6-[1-(2-methoxyethyl)-5-methyl-pyrazol-4-yl]-3-pyridyl]-1-methyl-imidazole-2-carboxamide; formate], under setting [1], the IC90 stood at 880 nM. The same measure, in the same setting: for `Cc1nn(CCCC#N)c(C)c1-c1ccc(-c2cnc(C(=O)Nc3ccc(C(=O)N4CCN(C(=O)[C@@H]5C[C@@H](O)C[N+]5(C)C)CC4)c(Cl)c3)n2C)c(F)c1F` [Example F58, N-[3-chloro-4-[4-[(2S,4R)-4-hydroxy-1,1-dimethyl-pyrrolidin-1-ium-2-carbonyl]piperazine-1-carbonyl]phenyl]-5-[4-[1-(3-cyanopropyl)-3,5-dimethyl-pyrazol-4-yl]-2,3-difluoro-phenyl]-1-methyl-imidazole-2-carboxamide; formate] the value was 480 nM. The same measure, in the same setting: with `COc1ccc(-c2[nH]ncc2-c2ccc(-c3cnc(C(=O)Nc4ccc(C(=O)N5CCN(C(=O)C6CC[N+](C)(C)CC6)CC5)c(Cl)c4)n3C)c(F)n2)cc1` [Example F59, N-[3-chloro-4-[4-(1,1-dimethylpiperidin-1-ium-4-carbonyl)piperazine-1-carbonyl]phenyl]-5-[2-fluoro-6-[5-(4-methoxyphenyl)-1H-pyrazol-4-yl]-3-pyridyl]-1-methyl-imidazole-2-carboxamide; formate] the figure was 750 nM; with `Cn1c(-c2ccc(-c3ccc(NCCC(N)=O)cn3)c(F)c2F)cnc1C(=O)Nc1ccc(C(=O)N2CCN(C(=O)C3CC[N+](C)(C)CC3)CC2)c(Cl)c1` [Example F63, 5-[4-[5-[(3-amino-3-oxo-propyl)amino]-2-pyridyl]-2,3-difluoro-phenyl]-N-[3-chloro-4-[4-(1,1-dimethylpiperidin-1-ium-4-carbonyl)piperazine-1-carbonyl]phenyl]-1-methyl-imidazole-2-carboxamide; formate], 560 nM; with `Cc1cc(N)cnc1-c1ccc(-c2cnc(C(=O)Nc3ccc(C(=O)N4CCN(C(=O)C5CC[N+](C)(C)CC5)CC4)c(Cl)c3)n2C)c(F)c1F` [Example F64, 5-[4-(5-amino-3-methyl-2-pyridyl)-2,3-difluoro-phenyl]-N-[3-chloro-4-[4-(1,1-dimethylpiperidin-1-ium-4-carbonyl)piperazine-1-carbonyl]phenyl]-1-methyl-imidazole-2-carboxamide; formate], 250 nM. Same read-out and setting: with `Cn1c(-c2ccc(-c3ccc(N)cn3)c(F)c2F)cnc1C(=O)Nc1ccc(C(=O)N2CCN(C(=O)C3CC[N+](C)(C)CC3)CC2)c(Cl)c1` [Example F65, 5-[4-(5-amino-2-pyridyl)-2,3-difluoro-phenyl]-N-[3-chloro-4-[4-(1,1-dimethylpiperidin-1-ium-4-carbonyl)piperazine-1-carbonyl]phenyl]-1-methyl-imidazole-2-carboxamide; formate] the figure was 370 nM; with `COCCn1ncc(-c2ccc(-c3cnc(C(=O)Nc4ccc(C(=O)N[C@H]5[C@@H]6CN(C(=O)N[C@@H]7C[N+](C)(C)C[C@H]7O)C[C@@H]65)c(Cl)c4)n3C)c(F)c2F)c1C` [Example F66, (1S,5R)-6-[[2-chloro-4-[[5-[2,3-difluoro-4-[1-(2-methoxyethyl)-5-methyl-pyrazol-4-yl]phenyl]-1-methyl-imidazole-2-carbonyl]amino]benzoyl]amino]-N-[(3R,4R)-4-hydroxy-1,1-dimethyl-pyrrolidin-1-ium-3-yl]-3-azabicyclo[3.1.0]hexane-3-carboxamide; formate], 29 nM. For `COCCn1nc(C)c(-c2ccc(-c3cnc(C(=O)Nc4ccc(C(=O)N5CCN(C(=O)C6CC[N+](C)(C)CC6)CC5)c(Cl)c4)n3C)c(F)n2)c1C` [Example F67, N-[3-chloro-4-[4-(1,1-dimethylpiperidin-1-ium-4-carbonyl)piperazine-1-carbonyl]phenyl]-5-[2-fluoro-6-[1-(2-methoxyethyl)-3,5-dimethyl-pyrazol-4-yl]-3-pyridyl]-1-methyl-imidazole-2-carboxamide; formate], under setting [1], the IC90 came to 1100 nM. On the same count and under the same terms, with `Cc1nn(CC(=O)NC(C)C)cc1-c1ccc(-c2cnc(C(=O)Nc3ccc(C(=O)N4CCN(C(=O)C5CC[N+](C)(C)CC5)CC4)c(Cl)c3)n2C)c(F)c1F` [Example G1, N-[3-chloro-4-[4-(1,1-dimethylpiperidin-1-ium-4-carbonyl)piperazine-1-carbonyl]phenyl]-5-[2,3-difluoro-4-[1-[2-(isopropylamino)-2-oxo-ethyl]-3-methyl-pyrazol-4-yl]phenyl]-1-methyl-imidazole-2-carboxamide; formate] the figure was 290 nM; with `Cc1nn(CC(=O)NC(C)(C)C)cc1-c1ccc(-c2cnc(C(=O)Nc3ccc(C(=O)N4CCN(C(=O)C5CC[N+](C)(C)CC5)CC4)c(Cl)c3)n2C)c(F)c1F` [Example G2, 5-[4-[1-[2-(tert-butylamino)-2-oxo-ethyl]-3-methyl-pyrazol-4-yl]-2,3-difluoro-phenyl]-N-[3-chloro-4-[4-(1,1-dimethylpiperidin-1-ium-4-carbonyl)piperazine-1-carbonyl]phenyl]-1-methyl-imidazole-2-carboxamide; formate], 320 nM; with `Cc1nn(CC(=O)NC23CC(C2)C3)cc1-c1ccc(-c2cnc(C(=O)Nc3ccc(C(=O)N4CCN(C(=O)C5CC[N+](C)(C)CC5)CC4)c(Cl)c3)n2C)c(F)c1F` [Example G3, 5-[4-[1-[2-(1-bicyclo[1.1.1]pentanylamino)-2-oxo-ethyl]-3-methyl-pyrazol-4-yl]-2,3-difluoro-phenyl]-N-[3-chloro-4-[4-(1,1-dimethylpiperidin-1-ium-4-carbonyl)piperazine-1-carbonyl]phenyl]-1-methyl-imidazole-2-carboxamide; formate], 100 nM.

On to `Cc1nn(CC(=O)NC23CC(C#N)(C2)C3)cc1-c1ccc(-c2cnc(C(=O)Nc3ccc(C(=O)N4CCN(C(=O)C5CC[N+](C)(C)CC5)CC4)c(Cl)c3)n2C)c(F)c1F` [Example G4, N-[3-chloro-4-[4-(1,1-dimethylpiperidin-1-ium-4-carbonyl)piperazine-1-carbonyl]phenyl]-5-[4-[1-[2-[(3-cyano-1-bicyclo[1.1.1]pentanyl)amino]-2-oxo-ethyl]-3-methyl-pyrazol-4-yl]-2,3-difluoro-phenyl]-1-methyl-imidazole-2-carboxamide; formate], for which the IC90 turned out to be 190 nM.
